Test results: patent publication EP0457910A1, “NOVEL GLUCOSAMINE DERIVATIVE AND LIPOSOME CONTAINING THE SAME AS MEMBRANE COMPONENT” (Japan Tobacco Inc., priority 1989, dated 1991)

System: 5-week-old ICR male mouse
Assay: Acute toxicity No. 1: lethal toxicity test of the compounds, intraperitoneal
Format: in vivo
Conditions: for dead individuals during the observation period / general condition after the administration / weight: i.p., mice
Source text: Novel glucosamine derivative [I] according to the present invention was used to perform a lethal toxicity test with respect to mice. The following compounds were used as to-be-tested substances. • ① 6-O-palmitoyl-D-glucosamine methylglycoside • ② 6,6'-di-O-palmitoyl-D-glucosamino-(l→4)-β-D-glucosamine methylglycoside • ③ Stearylamine (Comparative Example)
Each of the above compounds was suspended in a 0.5%-CMC·Na solution to prepare a to-be-tested solution. 1.0 mℓ of each to-be-tested solution was administered intraperitoneally to a 5-week-old ICR male mouse, and a mouse mortality state was observed. Note that 1.0 mℓ of a 0.5%-CMC·Na solution was similarly administered to a solvent control group.

SMILES	Total Number of dead individuals (450 ng/kg i.p.)	Number of dead individuals (450 ng/kg i.p., 1st day)	Number of dead individuals (450 ng/kg i.p., 2nd day)	Number of dead individuals (450 ng/kg i.p., 3rd day)	Number of dead individuals (450 ng/kg i.p., Day of test)	Total Number of dead individuals (900 ng/kg i.p.)	Number of dead individuals (900 ng/kg i.p., 1st day)	Number of dead individuals (900 ng/kg i.p., 2nd day)	Number of dead individuals (900 ng/kg i.p., 3rd day)	Number of dead individuals (900 ng/kg i.p., Day of test)	dead individuals during the observation period	general condition after the administration	weight	also measured
CCCCCCCCCCCCCCCC(=O)OC[C@H]1OC(OC)[C@H](N)[C@@H](O)[C@@H]1O (stereo partly drawn) [compound ①, 6-O-palmitoyl-D-glucosamine methylglycoside]	0/2	0/2	0/2	0/2	0/2	0/2	0/2	0/2	0/2	0/2	no dead individual was found	no significant change was found	an increase in weight was found as in the control	
CCCCCCCCCCCCCCCC(=O)OC[C@H]1O[C@@H](O[C@H]2[C@H](O)[C@@H](N)C(OC)O[C@@H]2COC(=O)CCCCCCCCCCCCCCC)[C@H](N)[C@@H](O)[C@@H]1O (stereo partly drawn) [compound ②, 6,6'-di-O-palmitoyl-D-glucosamino-(1→4)-β-D-glucosamine methylglycoside]	0/1	0/1	0/1	0/1	0/1	0/1	0/1	0/1	0/1	0/1	no dead individual was found	no significant change was found	an increase in weight was found as in the control	
CCCCCCCCCCCCCCCCCCN [compound ③, Stearylamine, reference compound]												a decrease in spontaneous motion was found immediately after the administration	the weight was gradually decreased to result in death	Total Number of dead individuals (250 ng/kg i.p.): 1/5; Number of dead individuals (250 ng/kg i.p., 1st day): 0/5; Number of dead individuals (250 ng/kg i.p., 2nd day): 0/5; Number of dead individuals (250 ng/kg i.p., 3rd day): 1/5; Number of dead individuals (250 ng/kg i.p., Day of test): 0/5; Total Number of dead individuals (500 ng/kg i.p.): 3/5; Number of dead individuals (500 ng/kg i.p., 1st day): 0/5; Number of dead individuals (500 ng/kg i.p., 2nd day): 3/5; Number of dead individuals (500 ng/kg i.p., 3rd day): 0/2; Number of dead individuals (500 ng/kg i.p., Day of test): 0/5; Total Number of dead individuals (1,500 ng/kg i.p.): 4/4; Number of dead individuals (1,500 ng/kg i.p., 1st day): 0/4; Number of dead individuals (1,500 ng/kg i.p., 2nd day): 1/4; Number of dead individuals (1,500 ng/kg i.p., 3rd day): 3/3; Number of dead individuals (1,500 ng/kg i.p., Day of test): 0/4
